Test results taken from PMC5567267, “Discovery of a potent protein kinase D inhibitor: insights in the binding mode of pyrazolo[3,4-d]pyrimidine analogues” (MedChemComm, 2017).
Like-named read-outs stand apart in the source and are kept apart here.

Target: T1, PKD2 (Homo sapiens, UniProt Q9BZL6)
T1 construct: made in house; host or cells: HEK293T cells, transient transfection with pDEST27-PRKD2, stimulated with 500 nM PDB before lysis
T1 sequence (Q9BZL6 1-878): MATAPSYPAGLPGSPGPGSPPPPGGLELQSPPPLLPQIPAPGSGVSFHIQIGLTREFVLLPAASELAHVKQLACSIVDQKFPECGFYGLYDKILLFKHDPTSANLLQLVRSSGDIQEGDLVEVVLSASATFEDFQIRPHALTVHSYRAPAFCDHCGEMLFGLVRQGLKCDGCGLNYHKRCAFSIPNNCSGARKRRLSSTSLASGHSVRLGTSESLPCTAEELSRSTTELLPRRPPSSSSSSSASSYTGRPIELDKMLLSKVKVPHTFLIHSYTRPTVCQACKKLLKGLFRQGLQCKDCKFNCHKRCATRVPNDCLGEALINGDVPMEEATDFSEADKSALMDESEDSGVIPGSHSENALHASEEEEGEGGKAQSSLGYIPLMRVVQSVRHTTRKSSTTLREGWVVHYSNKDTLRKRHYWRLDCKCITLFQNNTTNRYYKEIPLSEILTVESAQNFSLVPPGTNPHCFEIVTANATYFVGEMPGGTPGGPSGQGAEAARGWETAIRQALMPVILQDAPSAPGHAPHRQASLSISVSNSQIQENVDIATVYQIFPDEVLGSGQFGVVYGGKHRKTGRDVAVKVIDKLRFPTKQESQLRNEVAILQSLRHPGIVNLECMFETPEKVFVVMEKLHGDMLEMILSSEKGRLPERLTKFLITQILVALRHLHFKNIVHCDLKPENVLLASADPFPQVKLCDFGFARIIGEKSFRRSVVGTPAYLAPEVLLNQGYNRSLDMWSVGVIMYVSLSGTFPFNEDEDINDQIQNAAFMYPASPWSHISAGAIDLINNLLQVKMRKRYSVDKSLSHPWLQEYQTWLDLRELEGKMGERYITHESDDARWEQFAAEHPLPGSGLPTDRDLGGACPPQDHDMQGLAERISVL
Test: PKD2 screening assay (in vitro radiometric kinase assay)
Type: biochemical
Conditions: for remaining activity at 1 µM: 10 min; for IC50: radiometric
Description: All 35 described analogues were characterized in vitro via an initial screening at 1 μM against PKD2. […]
scanning of a coomassie stained SDS-polyacrylamide gel.
An in vitro radiometric assay was used to determine the inhibition of PKD in presence of various compounds at a […]
determinations. Reactions were carried out in 40µl of a mixture containing 50mM Tris-HCl pH 7.4, 10mM MgCl2, 50ng of PDB stimulated GST-PKD2, 4µg/ml Syntide-2 (Sigma Aldrich, St. Louis, USA), 25µM ATP and 2µCi [γ-32P]ATP (Perkin-Elmer, Massachusetts, USA). After 10’ the reaction was stopped by spotting 30µl of the reaction on whatmann P81 filter paper. The filter papers were washed 3 times in 0.5% phosphoric acid, followed by one wash in 100% acetone. Subsequently the papers were air-dried and counted using the Tri-Carb 2810 TR scintillation counter (Perkin-Elmer). Percentage of PKD2 inhibition was determined relative to a condition where no inhibitor was added (0,1% dimethylsulfoxide (DMSO)). Graphs were plotted and IC50 values were determined using the GraphPad software package (Prism). […]

[1] = ESI table, initial screening of all analogues at 1µM, read-out: % PKD2 activity remaining (1µM) (average ±SD)
[2] = compound at 1 μM, PDB stimulated GST-PKD2, Syntide-2, 25µM ATP, relative to no inhibitor (DMSO), read-out: % PKD 2 activity remaining (1 μM) (Average ± SD)
[3] = PDB stimulated GST-PKD2, Syntide-2, 25µM ATP

Molecule | remaining activity at 1 µM [1] [%] | remaining activity at 1 µM [2] [%] | IC50 [3] [nM] | % PKD2 activity remaining (1µM) (average ±SD) (ESI table, initial screening of all analogues at 1µM) [%]
2-acetyl-5-(4-amino-1-(tert-butyl)-1H-pyrazolo[3,4-d]pyrimidin-3-yl)benzaldehyde [Compound 6f] |  |  |  | 81 ±4.5
CC(C)(C)n1nc(-c2ccccc2)c2c(N)ncnc21 [Compound 6a, 1-tert-butyl-3-phenyl-1H-pyrazolo[3,4-d]pyrimidin-4-amine] | 77 ± 2.9 | 76 ± 2.9 | 9490 | 
CC(C)(C)n1nc(-c2ccc(F)cc2)c2c(N)ncnc21 [Compound 6b, 1-tert-butyl-3-(4-fluorophenyl)-1H-pyrazolo[3,4-d]pyrimidin-4-amine] | 81 ± 4 |  |  | 
CC(C)(C)n1nc(-c2ccccc2Cl)c2c(N)ncnc21 [Compound 6c, 1-tert-butyl-3-(2-chlorophenyl)-1H-pyrazolo[3,4-d]pyrimidin-4-amine] | 73 ± 2.4 |  |  | 
CC(C)(C)n1nc(-c2ccccc2F)c2c(N)ncnc21 [Compound 6d, 1-tert-butyl-3-(2-fluorophenyl)-1H-pyrazolo[3,4-d]pyrimidin-4-amine] | 83 ± 9.4 |  |  | 
COc1ccc(-c2nn(C(C)(C)C)c3ncnc(N)c23)cc1 [Compound 6e, 1-tert-butyl-3-(4-methoxyphenyl)-1H-pyrazolo[3,4-d]pyrimidin-4-amine] | 80 ± 7 |  |  | 
C=Cc1ccc(-c2nn(C(C)(C)C)c3ncnc(N)c23)cc1 [Compound 6g, 1-(tert-butyl)-3-(4-vinylphenyl)-1H-pyrazolo[3,4-d]pyrimidin-4-amine] | 84 ± 9.4 |  |  | 
CC(C)(C)n1nc(-c2ccc3ccccc3c2)c2c(N)ncnc21 [Compound 6h, 1-tert-butyl-3-(2-naphthyl)-1H-pyrazolo[3,4-d]pyrimidin-4-amine] | 59 ± 5 |  |  | 
CC(C)(C)n1nc(-c2cccc3ccccc23)c2c(N)ncnc21 [Compound 6i, 1-tert-butyl-3-(1-naphthyl)-1H-pyrazolo[3,4-d]pyrimidin-4-amine] | 34 ± 0.4 | 34 ± 0.4 | 403 | 
CC(C)(C)n1nc(-c2ccc(C#N)cc2)c2c(N)ncnc21 [Compound 6j, 4-(4-amino-1-(tert-butyl)-1H-pyrazolo[3,4-d]pyrimidin-3-yl)benzonitrile] | 97 ± 0.8 |  |  | 
CC(C)(C)c1ccc(-c2nn(C(C)(C)C)c3ncnc(N)c23)cc1 [Compound 6k, 1-(tert-butyl)-3-(4-(tert-butyl)phenyl)-1H-pyrazolo[3,4-d]pyrimidin-4-amine] | 93 ± 1.5 |  |  | 

Further lines, with some results ahead:

remaining activity at 1 µM [1] [%] | remaining activity at 1 µM [2] [%] | IC50 [3] [nM] | Molecule | % PKD2 activity remaining (1µM) (average ±SD) (ESI table, initial screening of all analogues at 1µM) [%]
35 ± 1.3 | 35 ± 1.3 | 449 | CC(C)(C)n1nc(Cc2ccccc2)c2c(N)ncnc21 [Compound 7a, 3-benzyl-1-tert-butyl-1H-pyrazolo[3,4-d]pyrimidin-4-amine] | 
41 ± 2.6 | 41 ± 2.6 | 451 | CC(C)(C)n1nc(Cc2ccccc2Cl)c2c(N)ncnc21 [Compound 7b, 1-tert-butyl-3-(2-chlorobenzyl)-1H-pyrazolo[3,4-d]pyrimidin-4-amine] | 
56 ± 2.4 | 55 ± 2.4 |  | CC(C)(C)n1nc(Cc2cccc(Cl)c2)c2c(N)ncnc21 [Compound 7c, 1-tert-butyl-3-(3-chlorobenzyl)-1H-pyrazolo[3,4-d]pyrimidin-4-amine] | 
83 ± 6.4 | 83 ± 6.4 | 4840 | Cn1nc(Cc2cccc(Cl)c2)c2c(N)ncnc21 [Compound 7d, 3-(3-chlorobenzyl)-1-methyl-1H-pyrazolo[3,4-d]pyrimidin-4-amine] | 
43 ± 6.6 | 43 ± 6.6 | 535 | CC(C)(C)n1nc(Cc2ccccc2Br)c2c(N)ncnc21 [Compound 7e, 3-(2-bromobenzyl)-1-tert-butyl-1H-pyrazolo[3,4-d]pyrimidin-4-amine] | 
59 ± 3.3 |  |  | CC(C)(C)n1nc(Cc2cccc(Br)c2)c2c(N)ncnc21 [Compound 7f, 3-(3-bromobenzyl)-1-tert-butyl-1H-pyrazolo[3,4-d]pyrimidin-4-amine] | 
90 ± 5.1 |  |  | CC(C)(C)n1nc(Cc2cccc(Cl)c2Cl)c2c(N)ncnc21 [Compound 7g, 1-tert-butyl-3-(2,3-dichlorobenzyl)-1H-pyrazolo[3,4-d]pyrimidin-4-amine] | 
78 ± 3.3 |  |  | CC(C)(C)n1nc(Cc2ccc(Cl)c(Cl)c2)c2c(N)ncnc21 [Compound 7h, 1-tert-butyl-3-(3,4-dichlorobenzyl)-1H-pyrazolo[3,4-d]pyrimidin-4-amine] | 
101 ± 8.3 | 101 ± 8.3 | > 50000 | CC(C)(C)n1nc(CCCc2ccccc2)c2c(N)ncnc21 [Compound 7i, 1-tert-butyl-3-(3-phenylpropyl)-1H-pyrazolo[3,4-d]pyrimidin-4-amine] | 
101 ± 3.3 |  |  | Cn1nc(CCCc2ccccc2)c2c(N)ncnc21 [Compound 7j, 1-methyl-3-(3-phenylpropyl)-1H-pyrazolo[3,4-d]pyrimidin-4-amine] | 
92.8 ± 5.8 | 93 ± 5.8 | > 50000 | CC(C)(C)n1nc(CCCCc2ccccc2)c2c(N)ncnc21 [Compound 7k, 1-tert-butyl-3-(4-phenylbutyl)-1H-pyrazolo[3,4-d]pyrimidin-4-amine] | 
98 ± 6.4 |  |  | Cn1nc(CCCCc2ccccc2)c2c(N)ncnc21 [Compound 7l, 1-methyl-3-(4-phenylbutyl)-1H-pyrazolo[3,4-d]pyrimidin-4-amine] | 
64 ± 3.9 | 64 ± 3.9 | 4660 | Cn1nc(Cc2cccc3ccccc23)c2c(N)ncnc21 [Compound 7m, 1-methyl-3-(1-naphthylmethyl)-1H-pyrazolo[3,4-d]pyrimidin-4-amine] | 
77 ± 5.1 |  |  | CCCCNc1nc(N)c2c(-c3ccccc3)nn(C(C)(C)C)c2n1 [Compound 13a, N6-butyl-1-tert-butyl-3-phenyl-1H-pyrazolo[3,4-d]pyrimidine-4,6-diamine] | 
81 ± 6.6 |  |  | CCCCNc1nc(N)c2c(-c3cccc(Cl)c3)nn(C(C)(C)C)c2n1 [Compound 13b, N6-butyl-1-tert-butyl-3-(3-chlorophenyl)-1H-pyrazolo[3,4-d]pyrimidine-4,6-diamine] | 
69 ± 8.3 |  |  | CCCCNc1nc(N)c2c(-c3ccc(F)cc3)nn(C(C)(C)C)c2n1 [Compound 13c, N6-butyl-1-tert-butyl-3-(4-fluorophenyl)-1H-pyrazolo[3,4-d]pyrimidine-4,6-diamine] | 
80 ± 2.5 |  |  | CCCCNc1nc(N)c2c(-c3ccc(OC)cc3)nn(C(C)(C)C)c2n1 [Compound 13d, N6-butyl-1-tert-butyl-3-(4-methoxyphenyl)-1H-pyrazolo[3,4-d]pyrimidine-4,6-diamine] | 
82 ± 7.2 |  |  | CCCCNc1nc(N)c2c(-c3ccsc3)nn(C(C)(C)C)c2n1 [Compound 13e, N6-butyl-1-tert-butyl-3-(3-thienyl)-1H-pyrazolo[3,4-d]pyrimidine-4,6-diamine] | 
91 ± 8.5 |  |  | CCCCNc1nc(N)c2c(-c3cccc(C(F)(F)F)c3)nn(C(C)(C)C)c2n1 [Compound 13f, N6-butyl-1-tert-butyl-3-[3-(trifluoromethyl)phenyl]-1H-pyrazolo[3,4-d]pyrimidine-4,6-diamine] | 
76 ± 2.7 |  |  | CCCCNc1nc(N)c2c(-c3ccc4ccccc4c3)nn(C(C)(C)C)c2n1 [Compound 13g, N6-butyl-1-tert-butyl-3-(2-naphthyl)-1H-pyrazolo[3,4-d]pyrimidine-4,6-diamine] | 
